The numbers were not newly measured in PubChem BioAssay AID1259409 (Chemical Carcinogenesis Research Information System (CCRIS), 2018), which cites them from elsewhere.

This data set has as its system rodent chemically induced tumor inhibition, incidence and multiplicity. The experiment in a line: CCRIS tumor inhibitor studies. To be noted: Carcinogen: 4-(METHYLNITROSAMINO)-1-(3-PYRIDYL)-1-BUTANONE, 64091-91-4, Dose [Inhibitor]: 0, Promoter: NONE USED.

Regarding `S=C=NCCc1ccccc1`, the “tumour outcome (control, treated, inhibition, significance)” value is 100%, 100%, 0%, not significant (1 UMOL ONCE 2 HR PRIOR TO CARCINOGEN DOSE (STUDY DURATION: 16 WK), Route [Inhibitor]: GAVAGE, Species: MOUSE, Strain/Sex: STRAIN-A/FEMALE, Target Tissue: Type of Lesion: LUNG: ADENOMA, Dose [Carcinogen]: 10 UMOL IN 0.1 ML SALINE ONCE); 100%, 100%, 0%, not significant (1 UMOL/G DIET FOR 15 WK BEGINNING 1 WK POST CARCINOGEN DOSE (STUDY DURATION: 16 WK), Route [Inhibitor]: ORAL, Species: MOUSE, Strain/Sex: STRAIN-A/FEMALE, Target Tissue: Type of Lesion: LUNG: ADENOMA, Dose [Carcinogen]: 10 UMOL ONCE); 100%, 100%, 0%, not significant (3 UMOL/G DIET FOR 15 WK BEGINNING 1 WK POST CARCINOGEN DOSE (STUDY DURATION: 16 WK), Route [Inhibitor]: ORAL, Species: MOUSE, Strain/Sex: STRAIN-A/FEMALE, Target Tissue: Type of Lesion: LUNG: ADENOMA, Dose [Carcinogen]: 10 UMOL ONCE); 12/40 (30%), 9/40 (23%), 23%, not calculated (3 UMOL/G DIET FOR 21 WK BEGINNING 1 WK PRIOR TO FIRST CARCINOGEN DOSE (STUDY DURATION: 104 WK), Route [Inhibitor]: ORAL, Species: RAT, Strain/Sex: F344/MALE, Target Tissue: Type of Lesion: LIVER: ADENOMA, Dose [Carcinogen]: 1.76 MG/KG 3/WK FOR 20 WK); 3/40 (8%), 5/40 (13%), -63%, not calculated (3 UMOL/G DIET FOR 21 WK BEGINNING 1 WK PRIOR TO FIRST CARCINOGEN DOSE (STUDY DURATION: 104 WK), Route [Inhibitor]: ORAL, Species: RAT, Strain/Sex: F344/MALE, Target Tissue: Type of Lesion: LIVER: CARCINOMA, Dose [Carcinogen]: 1.76 MG/KG 3/WK FOR 20 WK); 8/40 (20%), 5/40 (13%), 35%, not calculated (3 UMOL/G DIET FOR 21 WK BEGINNING 1 WK PRIOR TO FIRST CARCINOGEN DOSE (STUDY DURATION: 104 WK), Route [Inhibitor]: ORAL, Species: RAT, Strain/Sex: F344/MALE, Target Tissue: Type of Lesion: LUNG: ADENOMA, Dose [Carcinogen]: 1.76 MG/KG 3/WK FOR 20 WK). For the same compound, the “tumour outcome (control, treated, inhibition, significance)” value reads like this: (3 UMOL/G DIET FOR 21 WK BEGINNING 1 WK PRIOR TO FIRST CARCINOGEN DOSE (STUDY DURATION: 104 WK), Route [Inhibitor]: ORAL, Species: RAT, Strain/Sex: F344/MALE, Target Tissue: Type of Lesion: LUNG: CARCINOMA, Dose [Carcinogen]: 1.76 MG/KG 3/WK FOR 20 WK) 24/40 (60%), 12/40 (30%), 50%, not calculated; (3 UMOL/G DIET FOR 21 WK BEGINNING 1 WK PRIOR TO FIRST CARCINOGEN DOSE (STUDY DURATION: 104 WK), Route [Inhibitor]: ORAL, Species: RAT, Strain/Sex: F344/MALE, Target Tissue: Type of Lesion: NASAL CAVITY: BENIGN TUMOR, Dose [Carcinogen]: 1.76 MG/KG 3/WK FOR 20 WK) 8/40 (20%), 6/40 (15%), 25%, not calculated; (3 UMOL/G DIET FOR 21 WK BEGINNING 1 WK PRIOR TO FIRST CARCINOGEN DOSE (STUDY DURATION: 104 WK), Route [Inhibitor]: ORAL, Species: RAT, Strain/Sex: F344/MALE, Target Tissue: Type of Lesion: NASAL CAVITY: SQUAMOUS CELL CARCINOMA, Dose [Carcinogen]: 1.76 MG/KG 3/WK FOR 20 WK) 3/40 (8%), 7/40 (3%), 63%, not calculated; (3 UMOL/G OF DIET FOR 112 WK BEGINNING 1 WK PRIOR TO CARCINOGEN TREATMENT (STUDY DURATION: 112 WK), Route [Inhibitor]: ORAL, Species: RAT, Strain/Sex: F344/MALE, Target Tissue: Type of Lesion: HEMATOPOIETIC SYSTEM: LEUKEMIA OR LYMPHOMA, Dose [Carcinogen]: 2 PPM IN DRINKING WATER FOR 111 WK) 26/56 (46%), 28/59 (47%), -2%, not significant; (3 UMOL/G OF DIET FOR 112 WK BEGINNING 1 WK PRIOR TO CARCINOGEN TREATMENT (STUDY DURATION: 112 WK), Route [Inhibitor]: ORAL, Species: RAT, Strain/Sex: F344/MALE, Target Tissue: Type of Lesion: LIVER: ADENOMA OR CARCINOMA, Dose [Carcinogen]: 2 PPM IN DRINKING WATER FOR 111 WK) 5/55 (9%), 2/56 (4%), 56%, not significant; (3 UMOL/G OF DIET FOR 112 WK BEGINNING 1 WK PRIOR TO CARCINOGEN TREATMENT (STUDY DURATION: 112 WK), Route [Inhibitor]: ORAL, Species: RAT, Strain/Sex: F344/MALE, Target Tissue: Type of Lesion: LUNG: ADENOCARCINOMA, Dose [Carcinogen]: 2 PPM IN DRINKING WATER FOR 111 WK) 23/56 (41%), 1/59 (2%), 95%, p=0.00001. Also, the “tumour outcome (control, treated, inhibition, significance)” value reads like this: (3 UMOL/G OF DIET FOR 112 WK BEGINNING 1 WK PRIOR TO CARCINOGEN TREATMENT (STUDY DURATION: 112 WK), Route [Inhibitor]: ORAL, Species: RAT, Strain/Sex: F344/MALE, Target Tissue: Type of Lesion: LUNG: ADENOMA, Dose [Carcinogen]: 2 PPM IN DRINKING WATER FOR 111 WK) 16/56 (29%), 2/59 (3%), 90%, p=0.0002; (3 UMOL/G OF DIET FOR 112 WK BEGINNING 1 WK PRIOR TO CARCINOGEN TREATMENT (STUDY DURATION: 112 WK), Route [Inhibitor]: ORAL, Species: RAT, Strain/Sex: F344/MALE, Target Tissue: Type of Lesion: NASAL CAVITY: PAPILLOMA OR CARCINOMA, Dose [Carcinogen]: 2 PPM IN DRINKING WATER FOR 111 WK) 1/48 (2%), 0/53 (0%), 100%, not significant; (3 UMOL/G OF DIET FOR 112 WK BEGINNING 1 WK PRIOR TO CARCINOGEN TREATMENT (STUDY DURATION: 112 WK), Route [Inhibitor]: ORAL, Species: RAT, Strain/Sex: F344/MALE, Target Tissue: Type of Lesion: PANCREAS (ENDOCRINE): BENIGN TUMOR, Dose [Carcinogen]: 2 PPM IN DRINKING WATER FOR 111 WK) 5/52 (10%), 7/59 (12%), -20%, not significant; (3 UMOL/G OF DIET FOR 112 WK BEGINNING 1 WK PRIOR TO CARCINOGEN TREATMENT (STUDY DURATION: 112 WK), Route [Inhibitor]: ORAL, Species: RAT, Strain/Sex: F344/MALE, Target Tissue: Type of Lesion: PANCREAS (EXOCRINE): BENIGN TUMOR, Dose [Carcinogen]: 2 PPM IN DRINKING WATER FOR 111 WK) 1/52 (2%), 8/59 (14%), -600%, p=0.025.
